Laboratory results taken from patent US6815440B2, “Cyclic and heterocyclic N-substituted α-iminohydroxamic and -carboxylic acids” (Aventis Pharma Deutschland GmbH, priority 1995, dated 2004).
Structures can show the parent of a compound that is named as a salt.

Tests used:
Assay type in all cases: biochemical
[1] = molecular target: T1, catalytic domain of stromelysine-1 (Homo sapiens, UniProt P08254); test: Proteoglycan degradation assay (bovine aggrecan, ELISA with antibody 5-D-4); conditions: bovine nasal proteoglycane, 60 ng stromelysine-1 catalytic domain, MES pH 6.0, RT 3 h
T1 construct: enzymatic activity of the catalytic domains of human stomelysine and of neutrophil collagenase; made in house
T1 sequence (P08254 100-272 limits assumed): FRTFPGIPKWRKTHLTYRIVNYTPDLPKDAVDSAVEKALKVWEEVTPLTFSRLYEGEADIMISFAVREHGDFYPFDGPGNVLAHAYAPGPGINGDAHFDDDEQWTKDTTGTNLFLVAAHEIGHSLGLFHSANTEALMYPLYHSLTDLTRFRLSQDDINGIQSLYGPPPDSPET
Procedure: In the proteoglycan degradation assay, the extent of the degradation of native bovine aggrecan, the most important proteoglycan of the cartilage, is measured. The released proteoglycan fragments are determined using the monoclonal antibody 5-D-4 which recognizes the keratan sulfate side-chains which are located at the carboxy terminal of the G2 domain of aggrecan. Thus, the assay detects primarily pathologically important degradations which take place in the interglobular domain of aggrecan.
After addition of compounds of the formula I and the enzyme in the form of the catalytic domain of stromelysine-1, the amount of hyaluronic acid-bound aggrecan which remains after degradation is measured. The more aggrecan is detected, the lower the residual activity of the enzyme.
Description of the Test Protocol:
Wells of 96 well microtiter plates (Nunc, Maxisorp) each containing 100 μl of hyaluronic acid solution (25 μg/ml of hyaluronic acid (Sigma) in PBS) are incubated at room temperature (RT) for 12 h. The hyaluronic acid solution is removed by suction and the remaining free protein binding sites of the wells are saturated with in each case […] of a 5% strength solution of bovine serum albumin (BSA), 0.05% of Tween20 in PBS at RT for 1 h. The wells are subsequently covered with proteoglycane by incubating the wells with 100 μl each of a solution of bovine nasal proteoglycane (ICI) (200 μg/ml in 1×PBS, 5 mg/ml of BSA, 0.05% of Tween20) at RT for 1 h. The wells are washed twice with 1×PBS, 0.1% Tween20 to remove the free proteoglycanes. Subsequently, for the actual assay, 60 ng of purified catalytic domain of Stromelysine-1 (for the recombinant expression and purification, see Ye et al. (1992)) plus corresponding concentrations of the inhibitor to be tested in 100 μl of degradation buffer (100 mM MES pH 6.0, 100 mM NaCl, 10 mM CaCl2, 0.05% of Brij) are pipetted into the wells and incubated at RT for 3 h. The wells are washed twice with 1×PBS, 0.1% of Tween20 and then incubated with 100 μl of a solution of the detection antibody (monoclonal antibody done 5-D-4 (ICI), immunoreactive with the keratan sulfate side-chains of the proteoglycane, dilution 1:1000 in 1×PBS, 5 mg/ml BSA, 0.05% Tween20). The wells are washed twice with 1×PBS, 0.1% of Tween20, after which the immune reaction of the bound detection antibodies is carried out using 100 μl per well of an antibody solution for detection (goat anti Maus IgG, labeled with peroxidase (Dianova), diluted 1:1000 in 1×PBS, 5 mg/ml of BSA, 0.05% of Tween20) at RT for 1 h. The wells are again washed twice (as above), and the color reaction is then initiated using 100 μl each of 2 mg/ml of ABTS, activated with H2O2. The reaction products are measured in an ELISA reader at a wavelength of […].

[2] = molecular target: T2, catalytic domain of human stromelysine (Homo sapiens, UniProt P08254); test: Enzyme inhibition, catalytic domain of human stromelysine (fluorogenic substrate); conditions: hydroxamic acids up to and including Example 33; tris/HCl buffer pH=7.5; read-out: Stromelysine IC 50
T2 construct: enzymatic activity of the catalytic domains of human stomelysine and of neutrophil collagenase; made in house
T2 sequence (P08254 100-272 limits assumed): as above
Procedure: (§1) Preparation and determination of the enzymatic activity of the catalytic domains of human stomelysine and of neutrophil collagenase.
(§2) The two enzymes were prepared according to Ye et al., (Biochemistry 31 (1992) 11231-5). To measure the enzyme activity or enzyme inhibitor action, 70 μl of buffer solution and 10 μl of enzyme solution are incubated for 15 minutes with 10 μl of a 10% strength (v/v) aqueous dimethyl sulfoxide solution, which optionally contains the enzyme inhibitor. After addition of 10 μl of a 10% strength (v/v) aqueous dimethyl sulfoxide solution which contains 1 mmol/l of the substrate, the enzyme reaction is monitored by fluorescence spectroscopy (328 nm (ex)/393 nm(em)). The enzyme activity is shown as extinction increase/minute. […] The buffer solution contains 0.05% of Brij (Sigma, Deisenhofen, Germany) and also 0.1 mol/l of tris/HCl, 0.1 mol/l of NaCl, 0.01 mol/l of CaCl2 (pH=7.5) for the determination of the hydroxamic acids up to and including Example 33, or, for the determination of the carboxylic acids from Example 34, 0.1 mol/l of piperazine-N,N′-bis[2-ethanesulfonic acid] pH=6.5.
(§3) The enzyme solution contains 5 μg/ml of one of the enzyme domains prepared according to Ye et al. The substrate solution contains 1 mmol/l of the fluorogenic substrate (7-methoxycoumarin-4-yl)acetyl-Pro-Leu-Gly-Leu-3-(2′,4′-dinitrophenyl)-L-2,3-diaminopropionyl-Ala-Arg-NH2 (Bachem, Heidelberg, Germany).

[3] = molecular target: T3, catalytic domain of neutrophil collagenase (Homo sapiens, UniProt P22894); test: Enzyme inhibition, catalytic domain of neutrophil collagenase (fluorogenic substrate); conditions: hydroxamic acids up to and including Example 33; tris/HCl buffer pH=7.5; read-out: Neutrophil collagenase IC 50
T3 construct: enzymatic activity of the catalytic domains of human stomelysine and of neutrophil collagenase; made in house
T3 sequence (P22894 100-262 limits assumed): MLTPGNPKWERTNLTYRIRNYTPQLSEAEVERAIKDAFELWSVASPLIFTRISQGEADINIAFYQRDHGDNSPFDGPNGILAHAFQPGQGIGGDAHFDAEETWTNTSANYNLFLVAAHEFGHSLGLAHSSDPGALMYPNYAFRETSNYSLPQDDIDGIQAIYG
Procedure: as §1, §2, §3

Row | Structure (SMILES) | IC50 [1] | IC50 [2] | IC50 [3]
1 | O=C(NO)C1Cc2ccccc2CN1S(=O)(=O)c1ccc(-c2ccccc2)cc1 (stereo not drawn) [Example 2] | 85 nM | 20 nM | 0.2 nM
2 | O=C(Nc1ccc(S(=O)(=O)N2Cc3ccccc3C[C@@H]2C(=O)NO)cc1)OCc1ccccc1 [Example 9] | 1600 nM | 400 nM | 800 nM
3 | O=C(NO)[C@H]1Cc2ccccc2CN1S(=O)(=O)c1ccc(Oc2ccccc2)cc1 [Example 13c, R-2-(4-phenoxybenzenesulfonyl)-1,2,3,4-tetrahydroisoquinoline-3-hydroxamic acid] | 51 nM | 20 nM | 2 nM
4 | CN(C)c1ccc(Oc2ccc(S(=O)(=O)N3Cc4ccccc4C[C@@H]3C(=O)NO)cc2)cc1 [Example 14] | 6.7 nM | 30 nM | 2 nM

Further lines, results first:

Row | IC50 [1] | IC50 [2] | IC50 [3] | Structure (SMILES)
5 | 41 nM | 30 nM | 3 nM | O=C(c1ccccc1)c1ccc(S(=O)(=O)N2Cc3ccccc3C[C@@H]2C(=O)NO)cc1 [Example 18]
6 | 65 nM | 20 nM | 2 nM | CCOC(=O)Oc1ccc2c(c1)CN(S(=O)(=O)c1ccc(OC)cc1)[C@@H](C(=O)NO)C2 [Example 21]
7 | 25 nM | 20 nM | 4 nM | COc1ccc(S(=O)(=O)N2Cc3nc[nH]c3C[C@@H]2C(=O)NO)cc1 [Example 29, R-5-(4-methoxybenzenesulfonyl)-4,5,6,7-tetrahydro-1H-imidazo-(4,5-c)-pyridine-6-hydroxamic acid hydrochloride]
